Columns and labels:
[1] = system: MES-SA/Dx5 cells; assay: chemosensitization effect in doxorubicin-selected mdr1 variant; format: cell-based, human
[2] = system: MES-SA cells; format: cell-based, human
[3] = in vivo; cited from earlier work
[4] = system: EMT6 tumors; assay: in vivo chemosensitization of cyclophosphamide, subcutaneous EMT6 tumors in Balb/c mice; parameters: species or system murine (Balb/c mice); details: cyclophosphamide 40 mg/kg followed by GdT2BET 40 μmol/kg 5 min, or 5 min and 5 hr later; once a week for three weeks
Description: In vivo studies were carried out using Balb/c mice with EMT6 tumors implanted subcutaneously as described in Example 2. 4-Hydroxy cyclophosphamide was dissolved at a concentration of 5 mg/mL in 0.9% NaCl. GdT2BET was dissolved at a concentration of 2 mM in 5% mannitol. EMT6 tumors were implanted subcutaneously in the right flanks of Balb/c mice; 9 mice were in each group. Group #1 received cyclophosphamide (CY) at 40 mg/kg; group #2 received cyclophosphamide (CY) at 40 mg/kg followed by GdT2BET at 40 μmol/kg 5 min later; and group #3 received cyclophosphamide (CY) at 40 mg/kg followed by GdT2BET at 40 μmol/kg 5 min and 5 hr later. This protocol was repeated once a week for three weeks.

[5] = system: MES-SA cells
[6] = system: EMT6 tumors
[7] = system: MDR gene in bone marrow cells; details: MDR1-transgenic mouse, simultaneous administration (Mickisch, 1991); cited from earlier work

COc1cccc2c1C(=O)c1c(O)c3c(c(O)c1C2=O)C[C@@](O)(C(=O)CO)C[C@@H]3O[C@H]1C[C@H](N)[C@H](O)[C@H](C)O1 [doxorubicin]
effectiveness in the presence of texaphyrin [1]: effective
effectiveness in the presence of texaphyrin [2]: effective

bleomycin
effectiveness in the presence of texaphyrin [1]: effective
effectiveness in the presence of texaphyrin [2]: effective

CC/C(=C(\c1ccccc1)c1ccc(OCCN(C)C)cc1)c1ccccc1 [tamoxifen]
dose-limiting toxicities as chemosensitizer [3]: attributed to the inherent toxicity of the chemosensitizer and not due to enhanced chemotherapy toxicity

CC(=O)[O-].CC(=O)[O-].CCc1c(CC)c2cc3nc(cnc4cc(OCCOCCOCCOC)c(OCCOCCOCCOC)cc4ncc4nc(cc1[n-]2)C(CCCO)=C4C)C(C)=C3CCCO.O.[Gd+3] [GdT2BET]
chemosensitization with cyclophosphamide in vivo [4]: little chemosensitization occurred
mechanism of action of chemosensitization ([1]; MES-SA/Dx5 compared with MES-SA): P-glycoprotein-independent
enhancement of cytotoxicity of bleomycin [5]: seen at all concentrations of bleomycin tested and at all three concentrations of texaphyrin tested
percent survival of the cells ([5]; with bleomycin, 50 μM, 100 μM, and 150 μM GdT2BET, 48 hr): substantially less in the presence of texaphyrin
cures (no evidence of disease at end of study) ([6]; ADR+2GdT2BET group (GdT2BET 5 min and 5 hr post ADR), first study): Two
cures, further study ([6]; ADR+2GdT2BET group, further study): two
adriamycin cytotoxicity (tumor) ([6]; adriamycin 7.5 mg/kg iv followed by GdT2BET 40 μmol/kg iv, once a week for three weeks): clear enhancement of adriamycin cytotoxicity
p, ADR+2GdT2BET versus ADR only ([6]; after day 9, FIG. 1, n=14): < 0.05
cytotoxicity in further study ([6]; further study: ADR+2GdT2BET and three-step texaphyrin/ADR/texaphyrin): enhanced cytotoxicity

COc1ccc(CCN(C)CCCC(C#N)(c2ccc(OC)c(OC)c2)C(C)C)cc1OC (centres unmarked) [verapamil]
reversal of drug resistance [7]: circumvented in a dose-dependent manner

CC(=O)O[C@H]1C(=O)[C@@]2(C)[C@H]([C@H](OC(=O)c3ccccc3)[C@]3(O)C[C@H](OC(=O)[C@H](O)[C@@H](NC(=O)c4ccccc4)c4ccccc4)C(C)=C1C3(C)C)[C@]1(OC(C)=O)CO[C@@H]1C[C@@H]2O [paclitaxel]
IC50 difference relative to control / cytotoxicity in the presence of texaphyrin (FIG. 2) [5]: enhanced cytotoxicity

C=C[C@H]1C[N@@]2CC[C@H]1C[C@H]2[C@H](O)c1ccnc2ccc(OC)cc12 [quinine]
reversal of drug resistance [7]: circumvented in a dose-dependent manner

CN1CCN(CCCN2c3ccccc3Sc3ccc(C(F)(F)F)cc32)CC1 [trifluoperazine]
dose-limiting toxicities as chemosensitizer [3]: attributed to the inherent toxicity of the chemosensitizer and not due to enhanced chemotherapy toxicity

COc1cc([C@@H]2c3cc4c(cc3[C@@H](O[C@@H]3O[C@@H]5CO[C@@H](C)O[C@H]5[C@H](O)[C@H]3O)[C@H]3COC(=O)[C@H]23)OCO4)cc(OC)c1O [etoposide]
effectiveness in the presence of texaphyrin [1]: effective
IC50 difference relative to control / cytotoxicity in the presence of texaphyrin (FIG. 2) [5]: enhanced cytotoxicity
effectiveness in the presence of texaphyrin [2]: effective

N.N.[Cl][Pt][Cl] [cisplatin]
effectiveness in the presence of texaphyrin [1]: effective
effectiveness in the presence of texaphyrin [2]: effective
